Reference: ChEMBL document CHEMBL4316582, “Nitro-Group-Containing Drugs” (J Med Chem, 2019)

Legend:
HT-29 [1] = experiment: Cytotoxicity against human HT-29 cells assessed as reduction in cell viability after 2 hrs in presence of AZD7765 by Alamar blue assay; assay type: functional, cell-based; details: HT-29, 2 h
HT-29 [2] = experiment: Cytotoxicity against human HT-29 cells assessed as reduction in cell viability after 2 hrs in presence of LY2603618 by Alamar blue assay; assay type: functional, cell-based; details: HT-29, 2 h
NCI-H460 [3] = experiment: Cytotoxicity against human NCI-H460 cells assessed as reduction in cell viability after 2 hrs in presence of PF477736 by Alamar blue assay; assay type: functional, cell-based; details: NCI-H460, 2 h
NCI-H460 [4] = experiment: Cytotoxicity against human NCI-H460 cells assessed as reduction in cell viability after 2 hrs in presence of AZD7765 by Alamar blue assay; assay type: functional, cell-based; details: NCI-H460, 2 h
DU-145 = experiment: Cytotoxicity against human DU145 cells assessed as reduction in cell viability after 2 hrs in presence of AZD7765 by Alamar blue assay; assay type: functional, cell-based; details: DU-145, 2 h
NCI-H460 [5] = experiment: Cytotoxicity against human NCI-H460 cells assessed as reduction in cell viability after 2 hrs in presence of LY2603618 by Alamar blue assay; assay type: functional, cell-based; details: NCI-H460, 2 h
HeLa [6] = experiment: Cytotoxicity against human HeLa cells assessed as reduction in cell viability after 2 hrs in presence of LY2603618 by Alamar blue assay; assay type: functional, cell-based
HT-29 [7] = experiment: Cytotoxicity against human HT-29 cells assessed as reduction in cell viability after 2 hrs in presence of PF477736 by Alamar blue assay; assay type: functional, cell-based; details: HT-29, 2 h
HeLa [8] = experiment: Cytotoxicity against human HeLa cells assessed as reduction in cell viability after 2 hrs in presence of AZD7765 by Alamar blue assay; assay type: functional, cell-based
NCI-H460 [9] = experiment: Cytotoxicity against human NCI-H460 cells assessed as reduction in cell viability after 2 hrs under normoxic conditions by Alamar blue assay; assay type: functional, cell-based; details: NCI-H460, 2 h
NCI-H460 [10] = experiment: Cytotoxicity against human NCI-H460 cells assessed as reduction in cell viability after 2 hrs under hypoxic conditions by Alamar blue assay; assay type: functional, cell-based; details: NCI-H460, 2 h
[11] = Half life in mouse at 10 mg/kg; assay type: ADME, organism-based; details: in vivo
[12] = Cmax in mouse at 10 mg/kg; assay type: ADME, organism-based; design: dose 10 mg/kg; details: in vivo
[13] = Clearance in mouse at 10 mg/kg; assay type: ADME, organism-based; details: in vivo
[14] = Tmax in mouse at 10 mg/kg; assay type: ADME, organism-based; details: in vivo

| half-life [11] [min] | Cmax [12] [ng/mL] | clearance [13] [mL/min/kg] | Tmax [14] [min] | SMILES | IC50 (HT-29 [1]) [mM] | IC50 (HT-29 [2]) [mM] | IC50 (NCI-H460 [3]) [mM] | IC50 (NCI-H460 [4]) [mM] | IC50 (DU-145) [mM] | IC50 (NCI-H460 [5]) [mM] | IC50 (HeLa [6]) [mM] | IC50 (HT-29 [7]) [mM] | IC50 (HeLa [8]) [mM] | IC50 (NCI-H460 [9]) [mM] | IC50 (NCI-H460 [10]) [nM] |
| --- | --- | --- | --- | --- | --- | --- | --- | --- | --- | --- | --- | --- | --- | --- | --- |
| – | – | – | – | Cn1c(COP(=O)(NCCCl)NCCCl)cnc1[N+](=O)[O-] | 39 | 46 | 19 | 25 | 80 | 22 | 90 | 57 | 95 | – | – |
| 28.8 | 1820 | 188 | 5 | COc1cccc2c1C(=O)c1c(O)c3c(c(O)c1C2=O)C[C@@](O)(C(C)=O)C[C@@H]3O[C@H]1C[C@H](NCOCCn2ccnc2[N+](=O)[O-])[C@H](O)[C@H](C)O1 | – | – | – | – | – | – | – | – | – | 0.0098 | 23 |
